Assay results as given in patent publication US11414414B2, “Pyrroloquinoline quinone glycine betaine salt” (SHANGHAI XUANCHUANG BIOLOGICAL TECHNOLOGY CO., LTD., priority 2016, dated 2022).

Legend:
[1] = Dynamic moisture sorption (DVS) hygroscopicity; type: physicochemical; conditions: warehouse environment (humidity of 45%)
[2] = tested on: CC14-induced acute liver injury model mice; test: CC14-induced acute liver injury model: ALT, AST in serum, SOD, GSH-Px, MDA in liver homogenate; type: in vivo, Kunming mice; conditions: for GSH-Px / MDA / SOD: liver homogenate, Mean ± SD; for GSH-Px / MDA / SOD / ALT / AST: 3 mg/kg by weight of PQQ, gavage once a day for 7 days; for ALT / AST: serum, 24 h after CC14, Mean ± SD
Procedure: Forty-eight male Kunming mice weighing 18-22 g were randomly divided into 4 groups: blank control group, CC14 model group, PQQ disodium salt group and PQQ betaine salt group, respectively, with 12 mice in each group.
On the 7th day after gavage for 1 h, the mice in CC14 model group, PQQ disodium salt group and PQQ betaine salt group were injected intraperitoneally with 0.25% CC14 peanut oil (10 mL/kg) once, resulting in acute liver injury models; while mice in the blank control group were injected intraperitoneally with peanut oil (10 mL/kg) once. Animals were sacrificed after orbital blood collection for 24 h. 0.5-1 mL blood was collected from the mouse orbit, serum was separated by static centrifugation, and ALT and AST levels in serum were measured by biochemical kits. Animals were sacrificed and livers were removed for preparing liver homogenate. Superoxide dismutase (SOD), glutathione peroxidase (GSH-Px) activity and malondialdehyde (MDA) content in liver homogenates were determined by biochemical kits.

[3] = tested on: scopolamine-induced memory disordered model mice; test: Morris water maze place navigation test in scopolamine-induced memory disordered mice; type: in vivo, Kunming mice; conditions: for Latent period, the first day / Latent period, the fourth day / Latent period, the second day / Latent period, the third day: time to climb onto the platform, Mean ± SD
Procedure: (§1) Fifty Kunming mice, weighing 18-22 g, were randomly divided into five groups: blank control group, model group, low-dose PQQ betaine salt group (1.5 mg/kg), high-dose PQQ betaine salt group (3 mg/kg) and positive control group (donepezil, 3 mg/kg), respectively, 10 mice in each group. Wherein the PQQ betaine salt used is a crystalline Form A of pyrroloquinoline quinone betaine salt prepared according to the method of example 1.
(§2) The blank control group and the model group were administered with distilled water by gavage, the low-dose PQQ betaine salt group, the high-dose group and positive control group were administered with drugs by gavage respectively, once a day. Learning and memory training was carried out on the fifth day of administration and for 5 days in total; the model group, the low-dose PQQ betaine salt group, the high-dose group and the positive control group were intraperitoneally injected with 2 mg/kg of scopolamine 20 minutes earlier before training to obtain memory disordered models, while the blank control group was injected with a corresponding volume of saline. Morris water maze experiment were carried out for 5 days in total, wherein, a place navigation test was carried out in the first 4 days in order to observe and record the time required for the experimental animals to seek and climb onto the platform, in order to test the learning ability of mice. On the fifth day, a spatial probe test was carried out, during the test, the platform was removed, the time (the latent period) when crossing the original platform position for the first time was recorded as well as the number of time of traversing the original platform position for the animal, in order to test the spatial memory capacity of the animal. The latent period and the number of time of traversing platforms were used as evaluation indexes to detect the improvement of learning and memory in dementia model mice.

[4] = tested on: scopolamine-induced memory disordered model mice; test: Morris water maze spatial probe test in scopolamine-induced memory disordered mice; type: in vivo, Kunming mice; conditions: for Latent period of crossing the original platform / Number of time of crossing platform: fifth day, Mean ± SD
Procedure: as §1, §2

[5] = Illumination stability of the crystalline form (XRPD); conditions: light intensity of 4500 lux, 5 and 10 days
Description: An appropriate amount of sample of the crystalline Form A of pyrroloquinoline quinone betaine salt was subjected to a light intensity of 4500 lux, and after 5 and 10 days the sample was removed for XPRD testing (as shown in FIGS. 6 and 7) to examine the crystalline stability of the sample under illumination.

[6] = High humidity stability of the crystalline form (XRPD); conditions: humidity of 92.5%, 5 days and 10 days
Description: The appropriate amount of sample of the crystalline Form A of pyrroloquinoline quinone betaine salt is subjected to the humidity of 92.5%, and after 5 days and 10 days the samples were removed for XPRD testing (as shown in FIGS. 4 and 5) to examine the crystalline stability of the sample against humidity.

[7] = High temperature stability of the crystalline form (XRPD); conditions: oven at 60° C., 5 days and 10 days
Procedure: An appropriate amount of sample of the crystalline Form A of Pyrroloquinoline Quinone Betaine Salt was placed in an oven at 60° C., and after 5 days and 10 days the sample was removed for XPRD testing (as shown in FIGS. 2 and 3) to examine the crystalline stability of the sample against temperature.

[8] = Solubility of saturated aqueous solution by UV absorbance at 450 nm
[9] = Standing at room temperature (hygroscopicity observation); type: physicochemical; conditions: room temperature (25° C., about 50% humidity), a period of time
[10] = P<0.05 compared to the model group

pyrroloquinoline quinone betaine salt [PQQ betaine salt]
moisture sorption [1]: 1.1% | effect on CC14-induced acute liver injury in mice ([2]; 3 mg/kg, gavage, 7 days, overall conclusion): significantly improved | GSH-Px [2]: 93.5 ± 9.0^ΔΔ kU/g pro | MDA [2]: 2.61 ± 0.37^ΔΔ nmol/L | SOD [2]: 31.1 ± 4.5^ΔΔ kU/g pro | ALT [2]: 110.1 ± 26.0^ΔΔ IU/L | AST [2]: 110.0 ± 20.4^ΔΔ IU/L | Latent period, the first day ([3]; 1.5 mg/kg gavage once a day): 74.30 ± 17.80 s | Latent period, the fourth day ([3]; 1.5 mg/kg gavage once a day): 50.80 ± 15.95 s | Latent period, the second day ([3]; 1.5 mg/kg gavage once a day): 62.90 ± 14.07 s | Latent period, the third day ([3]; 1.5 mg/kg gavage once a day): 51.90 ± 16.43 s | Latent period, the first day ([3]; 3 mg/kg gavage once a day): 74.70 ± 16.94 s | Latent period, the fourth day ([3]; 3 mg/kg gavage once a day): 29.50 ± 12.29^ΔΔ s | Latent period, the second day ([3]; 3 mg/kg gavage once a day): 62.30 ± 13.84 s | Latent period, the third day ([3]; 3 mg/kg gavage once a day): 38.20 ± 14.01^Δ s | latent period in place navigation compared with the model group ([3]; P<0.05 or P<0.01 compared with the model group): significantly shortened | Latent period of crossing the original platform ([4]; 1.5 mg/kg): 25.48 ± 12.19^ΔΔ s | Number of time of crossing platform ([4]; 1.5 mg/kg): 2.20 ± 0.42^Δ | Latent period of crossing the original platform ([4]; 3 mg/kg): 20.98 ± 9.44^ΔΔ s | Number of time of crossing platform ([4]; 3 mg/kg): 2.10 ± 0.57^Δ | latent period in spatial search compared to the model group [4, 10]: reduced | number of time of crossing platform compared to the model group [4, 10]: increased | crystalline stability under illumination [5]: stable | crystalline stability against humidity [6]: stable | crystalline stability against temperature [7]: stable | Relative ratio (solubility) [8]: 1.50 | Solubility ([8]; saturated aqueous solution at 30° C., solubility of pyrroloquinoline quinone): 14.50 mM

C[N+](C)(C)CCO.C[N+](C)(C)CCO.C[N+](C)(C)CCO.O=C(O)c1cc(C(=O)O)c2c(n1)C(=O)C(=O)c1cc(C(=O)O)[nH]c1-2 [tricholine salt of PQQ]
appearance after standing (hygroscopicity) [9]: became a sticky solid

O=C([O-])c1cc(C(=O)[O-])c2c(n1)C(=O)C(=O)c1cc(C(=O)O)[nH]c1-2.[Na+].[Na+] [Disodium salt of PQQ, reference compound]
GSH-Px [2]: 93.4 ± 10.1^ΔΔ kU/g pro | MDA [2]: 2.71 ± 0.37^Δ nmol/L | SOD [2]: 29.5 ± 4.9^Δ kU/g pro | ALT [2]: 126.5 ± 27.0^ΔΔ IU/L | AST [2]: 115.4 ± 22.7^Δ IU/L

COc1cc2c(cc1OC)C(=O)C(CC1CCN(Cc3ccccc3)CC1)C2 (centres unmarked) [Donepezil, donepezil, reference compound]
Latent period of crossing the original platform ([4]; 3 mg/kg): 16.41 ± 7.60^ΔΔ s | Number of time of crossing platform ([4]; 3 mg/kg): 2.90 ± 0.57^ΔΔ
